Results on one molecule are retold here after patent US20240317722A1, “HETEROARYL-3-PIPERIDINEDIONE COMPOUND AND USE THEREOF” (Medshine Discovery Inc., priority 2021, published 2024).

Molecules are shown by their SMILES.

The term IC50 denotes the midpoint of a concentration-inhibition curve.

For this assay, the system named is MDA-MB-231. The assay is described as follows: Anti-proliferative effect in MDA-MB-231 (CellTiter-Glo). The assay is classed as cell-based, human. The note with it: MDA-MB-231, 3 days. The protocol:
This assay studied the inhibitory effect of the compounds on cell proliferation by detecting the effect of the test compounds on the in vitro activity of tumor cells MV4-11 and MDA-MB-231.
The tumor cell lines were cultured in an incubator at 37° C., 5% CO2 or 0% CO2according to the above culture conditions. The cells were periodically passaged, and cells in logarithmic growth phase were taken for plating. • 2. Cell plating • (1). Cells were stained with trypan blue and viable cells were counted. • (2).
• (3). 90 μL of cell suspension was added to each well of the culture plate, and culture medium without cells was added to the blank control well. • (4). The plate was incubated overnight in an incubator at 37° C., 5% CO2 or 0% CO2, and 100% relative humidity. • 3. Preparation of a compound storage plate
Preparation of a 400× compound storage plate: The compounds were diluted with DMSO in a gradient from the highest concentration to the lowest concentration. The plates were prepared freshly at each time for use. • 4. Preparation of 10× compound working solution and treatment of cells with compounds • (1). Preparation of 10× compound working solution: compound or DMSO was added, and the well content was mixed to uniform by aspiration and expelling with pipette. 78 μL of cell culture medium was added to a 96-well plate with a V-shaped bottom. 2 μL of the compound from the 400× compound storage plate was added to the cell culture medium in the 96-well plate. 2 μL of DMSO was added to the vehicle control and the blank control. After adding compound or DMSO, the well content was mixed to uniform by aspiration and expelling with pipette. • (2). Dosing: 10 μL of 10× compound working solution was added to the cell culture plate. 10 μL of DMSO-cell culture mix solution was added to the vehicle control and blank control. • (3). The 96-well cell plate was placed back into the incubator and cultured for 3 days. • 5. CellTiter-Glo luminescence cell viability detection
The following steps were performed according to the instruction of Promega CellTiter-Glo luminescence cell viability detection kit (Promega-G7573). • (1). The CellTiter-Glo buffer was thawed and allowed to stand to reach room temperature; • (2). CellTiter-Glo substrate was allowed to stand to reach room temperature; • (3). 10 mL of CellTiter-Glo buffer was added to CellTiter-Glo substrate in a bottle to dissolve the substrate to formulate CellTiter-Glo working solution; • (4). The working solution was vortexed slowly for fully dissolution; • (5). The cell culture plates were taken out and allowed to stand for 30 minutes to equilibrate to room temperature; • (6). 50 μL (equal to half the volume of cell culture solution in each well) of Cell Titer-Glo working solution was added into each well. The cell plate was wrapped with aluminum foil to protect the cell plate from light; • (7). The culture plates were shaken on an orbital shaker for 2 minutes to induce cell lysis; • (8). The culture plates were left at room temperature for 10 minutes to stabilize the luminescence signal; • (9). The luminous signal was detected on the 2104 En Vision plate reader. • 6. Data analysis
The following formula was used to calculate the inhibition rate (IR) of the test compounds: IR (%)=(RLU of the vehicle control−RLU of the compound)/(RLU of the vehicle control−RLU of the blank control)*100%. The inhibition rates of the compounds at different concentrations were calculated in Excel, and then GraphPad Prism software was used to graph the inhibition curves and calculate the relevant parameters, including the minimum inhibition rate, maximum inhibition rate and IC50.
In general terms: In ATP-based viability assays light output follows the ATP content of the culture.

Regarding `COCCOc1cc(NC(=O)NCc2ccc3c(C4CCC(=O)NC4=O)coc3c2)cc(Cl)c1C` (centres unmarked) [WX005], the “Max. IR (maximum inhibition rate)” value is 80.7%. The molecule further yielded an IC50 (Homo sapiens, 72 h) of 4.7 nM.
